Experimental findings from US20250214977A1, “STAT6 INHIBITORS AND USES THEREOF” (Kymera Therapeutics, Inc., priority 2024, published 2025) are described below.

The test system of the experiment is Phosphorylation of STAT6 in human A549 cells. As to the kind of experiment: Phosphorylated STAT6 (pSTAT6) flow cytometry assay in human A549 cells. It counts as cell-based. The note with it: read-out: STAT6 IL4 pSTAT6 assay in A549 cells: Average IC50. The source says: Example 3. Phosphorylated STAT6 (pSTAT6) Flow Cytometry Assay in Human A549 Cells
Phosphorylation of STAT6 in human A549 cells was quantitatively measured using flow cytometry technology.

In the case of `COc1ccccc1-c1cc(C2=CCCN(C(=O)CCn3ccnn3)C2)c(F)c2[nH]c(C(=O)N3CCN(c4nc5ccccc5nc4C)CC3)cc12` [Example I-339], the IC50 is less than 100 nM.
The result for `COc1ccncc1-c1cc(C2=CCCN(C(=O)CCn3ccnn3)C2)c(F)c2[nH]c(C(=O)N3CCN(c4ncncc4OC)CC3)cc12` [Example I-429] reads less than 100 nM; that for `CCCOc1ncc(C)cc1-c1cc(C2=CCCN(C(=O)CCn3ccnn3)C2)c(F)c2[nH]c(C(=O)N3CCN(c4ncc(F)cc4OC)CC3)cc12` [Example I-654], less than 100 nM.
As for `COc1cnc(N2CCN(C(=O)c3cc4c(-c5ccccc5OC)cc(C5=CCCN(C(=O)CCn6ccnn6)C5)c(F)c4[nH]3)CC2)c(OC)c1` [Example I-352], the IC50 is less than 100 nM.
The value for `COc1cc(F)cnc1-c1cc(C2=CCCN(C(=O)CCn3ccnn3)C2)c(F)c2[nH]c(C(=O)N3CCN(c4ncc(F)cc4OC)CC3)cc12` [Example I-614] was less than 100 nM; that for `COc1ccccc1-c1cc(C2=CCCN(C(=O)CCn3ccnn3)C2)c(F)c2[nH]c(C(=O)N3CCN(c4ncc(C5CC5)cc4OC)CC3)cc12` [Example I-354] was less than 100 nM; that for “(S)-5-(1-(2-formyl-1,2,3,4-tetrahydroisoquinoline-3-carbonyl)-1,2,5,6-tetrahydropyridin-3-yl)-7-(2-methoxyphenyl)-N,N-dimethylbenzofuran-2-carboxamide [Example I-805]” was more than 100000 nM.
The result for `COc1ccccc1-c1cc(C2=CCCN(C(=O)CCn3ccnn3)C2)c(F)c2sc(C(=O)N(C)C)cc12` [Example I-337, 6-(1-(3-(1H-1,2,3-triazol-1-yl)propanoyl)-1,2,5,6-tetrahydropyridin-3-yl)-7-fluoro-4-(2-methoxyphenyl)-N,N-dimethylbenzo[b]thiophene-2-carboxamide] reads less than 100 nM; that for `Cc1[nH]nc2ccc(-c3cc(C4=CCCN(C(=O)CCn5ccnn5)C4)cc4cc(C(=O)N(C)C)oc34)cc12` [Example I-1075], less than 100 nM; that for `CCOC(=O)c1cc2ccc(N3CCN(C(=O)c4cc5c(-c6ccccc6OC)cc(C6=CCCN(C(=O)CCn7ccnn7)C6)c(F)c5[nH]4)CC3)cn2c1` [Example I-903], 100 to 1000 nM.
The result for `CN(C)C(=O)c1cc2cc(C3=CCCN(C(=O)CCc4nccs4)C3)ccc2o1` [Example I-815] reads 100 to 1000 nM.
Take `COc1cc(F)cnc1N1CCN(C(=O)c2cc3c(-c4cccc(-c5ccncc5)c4)cc(C4=CCCN(C(=O)CCn5ccnn5)C4)c(F)c3[nH]2)CC1` [Example I-626]: the half-maximal inhibitory concentration (IC50) is less than 100 nM.
The result for `COc1cc(N(C)C)ccc1-c1cc(C2=CCCN(C(=O)CCn3ccnn3)C2)c(F)c2[nH]c(C(=O)N3CCN(c4ncccc4OC4CC4)CC3)cc12` [Example I-609] reads less than 100 nM; that for `CCc1ccc(OC)c(N2CCN(C(=O)c3cc4c(-c5cnccc5OC)cc(C5=CCCN(C(=O)CCn6ccnn6)C5)c(F)c4[nH]3)CC2)n1` [Example I-466], less than 100 nM.
For `CN(C)C(=O)c1cc2c(C3CCCCC3)cc([C@H]3CCCN(C(=O)CCn4cccn4)C3)c(F)c2[nH]1` [Example I-840], the concentration for half-maximal inhibition (IC50) is less than 100 nM.
For the molecule `COc1c(F)cc(F)cc1-c1cc(C2=CCCN(C(=O)CCn3ccnn3)C2)c(F)c2[nH]c(C(=O)N3CCN(C4CC4)CC3)cc12` [Example I-603], the IC50 was less than 100 nM.
With `COc1ccccc1-c1cc(C2=CCCN(C(=O)CCn3ccnn3)C2)c(F)c2[nH]c(C(=O)N3CCN(c4cc(C(F)(F)F)ccn4)CC3)cc12` [Example I-935], the concentration for half-maximal inhibition (IC50) was less than 100 nM.
For `CCc1cc(C)ncc1-c1cc(C2=CCCN(C(=O)CCn3cccn3)C2)c(F)c2[nH]c(C(=O)N3CCN(c4cc(C)ccc4OC)CC3)cc12` [Example I-515], the half-maximal inhibitory concentration (IC50) is less than 100 nM.
Take `C#Cc1cc(C2=CCCN(C(=O)CCn3ccnn3)C2)cc2cc(C(=O)N(C)C)oc12` [Example I-373, 5-(1-(3-(1H-1,2,3-triazol-1-yl)propanoyl)-1,2,5,6-tetrahydropyridin-3-yl)-7-ethynyl-N,N-dimethylbenzofuran-2-carboxamide]: the concentration for half-maximal inhibition (IC50) lay within 100 to 1000 nM.
The value for `COc1ccccc1-c1cc(C2=CCCN(C(=O)CCn3ccnn3)C2)c(F)c2[nH]c(C(=O)N3CCN(c4ccc5c(c4)C=NCC5)CC3)cc12` [Example I-918] was less than 100 nM.
`COc1ccccc1-c1cc(C2=CCCN(C(=O)CCn3ccnn3)C2)c(F)c2[nH]c(C(=O)N3CCN(c4ncc(N5CCCCC5)cc4OC4CC4)CC3)cc12` [Example I-961]: the IC50 was less than 100 nM.
The value for `CCc1ccncc1-c1cc(C2=CCCN(C(=O)CCn3ccnn3)C2)c(F)c2[nH]c(C(=O)N3CCN(c4ncccc4OC)CC3)cc12` [Example I-561] was less than 100 nM.
The value for `COc1ccncc1-c1cc(C2=CCCN(C(=O)CCn3ccnn3)C2)c(F)c2[nH]c(C(=O)N3CCN(c4nc(Cl)ccc4OC)CC3)cc12` [Example I-491] was more than 100000 nM; that for `COc1cc(N(C)C)ccc1-c1cc(C2=CCCN(C(=O)CCn3ccnn3)C2)c(F)c2[nH]c(C(=O)N3CCN(c4ccccc4OC)CC3)cc12` [Example I-610] was less than 100 nM; that for `CN(C)C(=O)c1cc2cc(C3=CCCN(C(=O)CCn4ccnn4)C3)cc(-c3cc(F)ccc3C(F)(F)F)c2o1` [Example I-1081] was less than 100 nM.
The value for `COc1ccccc1N1CCN(C(=O)c2cc3c(-c4cnccc4OC(C)C)cc(C4=CCCN(C(=O)CCn5ccnn5)C4)c(F)c3[nH]2)CC1` [Example I-403] was more than 100000 nM; that for `CCn1ncc2c1CN(C(=O)c1cc(-c3ccccc3OC)c3c(c1)cc(C1=CCCN(C(=O)CCn4ccnn4)C1)n3CC1CC1)C2` [Example I-530] was less than 100 nM; that for “(1S)-3-[4-(4-ethyl-3-pyridyl)-7-fluoro-2-[4-(5-fluoro-3-methoxy-2-pyridyl)piperazine-1-carbonyl]-1H-indol-6-yl]cyclohex-3-ene-1-carboxylic acid [Example I-809]” was less than 100 nM.
Regarding `CCc1cc(C)ncc1-c1cc(C(=O)N2CCN(c3ncc(F)cc3OC)CC2)cc2cc(C3=CCCN(C(=O)CCn4ccnn4)C3)n(CC3CC3)c12` [Example I-533], the IC50 was less than 100 nM.
The value for `COc1cc(F)cnc1N1CCN(C(=O)c2cc3c(C=C4CCOCC4)cc(C4=CCCN(C(=O)CCn5ccnn5)C4)c(F)c3[nH]2)CC1` [Example I-644] was less than 100 nM; that for `COc1ccccc1-c1cc(C2=CCCN(C(=O)CCn3ccnn3)C2)c(F)c2[nH]c(C(=O)N3CCN(c4cncn4C)CC3)cc12` [Example I-1026] was less than 100 nM; that for `CCc1ccc(-c2cc(C(=O)N3Cc4cnn(CC)c4C3)cc3cc(C4=CCCN(C(C)=O)C4)n(CC4CC4)c23)c(C)n1` [Example I-1046] was 100 to 1000 nM.
The value for `CCn1nccc1-c1cc(C(=O)N2Cc3cnn(CC)c3C2)cc2cc(C3=CCCN(C(=O)CCn4ccnn4)C3)n(CC3CC3)c12` [Example I-544] was less than 100 nM.
The result for `CCOc1cccnc1N1CCN(C(=O)c2cc3c(-c4cnccc4OC)cc(C4=CCCN(C(=O)CCn5ccnn5)C4)c(F)c3[nH]2)CC1` [Example I-564] reads less than 100 nM; that for `COc1cccnc1N1CCN(C(=O)c2cc3ccc(C4=CCCN(C(=O)CCn5ccnn5)C4)c(F)c3[nH]2)CC1` [Example I-338], less than 100 nM.
Regarding `Cc1ccc(-c2cc(C3=CCCN(C(=O)CCn4ccnn4)C3)cc3cc(C(=O)N(C)C)oc23)cn1` [Example I-1084], the IC50 is less than 100 nM.
The result for `CCc1nc(C)ccc1-c1cc(C(=O)N2CCN(c3ncc(F)cc3OC)CC2)cc2cc(C3=CCCN(C(=O)C(C)C(=O)O)C3)n(CC3CC3)c12` (centres unmarked) [Example I-539] reads less than 100 nM.
The value for `COc1cc(F)cnc1N1CCN(C(=O)c2cc3c(-c4cnn(-c5ccccc5)c4)cc(C4=CCCN(C(=O)CCn5ccnn5)C4)c(F)c3[nH]2)CC1` [Example I-671] was 100 to 1000 nM; that for `COc1ccccc1-c1cc(C2=CCCN(C(=O)CCn3ccnn3)C2)c(F)c2[nH]c(C(=O)N3CCN(c4cccc(OC(F)F)c4)CC3)cc12` [Example I-427] was less than 100 nM; that for `CN(C)C(=O)c1cc2ccc([C@H]3CCCN(C(=O)CCn4ccnn4)C3)cc2[nH]1` [Example I-1189] was 100 to 1000 nM.
For `CCn1nccc1-c1cc(C2=CCCN(C(=O)CCn3ccnn3)C2)c(F)c2[nH]c(C(=O)N3CCN(c4ncccc4OC)CC3)cc12` [Example I-582], the IC50 is less than 100 nM.
The result for `COc1ccccc1-c1cc(C2=CCCN(C(=O)CCn3ccnn3)C2)c(F)c2[nH]c(C(=O)N3CCN(c4ccc(O)cc4)CC3)cc12` [Example I-867] reads less than 100 nM; that for `COc1ccncc1-c1cc(C2=CCCN(C(=O)CCn3ccnn3)C2)c(F)c2[nH]c(C(=O)N3CCN(c4nc(C)c(F)cc4OC)CC3)cc12` [Example I-500], more than 100000 nM; that for `COc1cccnc1N1CCN(C(=O)c2cc3c(-c4ccc(C#N)cn4)cc(C4=CCCN(C(=O)CCn5ccnn5)C4)c(F)c3[nH]2)CC1` [Example I-575], less than 100 nM.
Turning to `COC(=O)N1CCN(C(=O)c2cc3c(-c4ccccc4OC)cc(C4=CCCN(C(=O)CCn5ccnn5)C4)c(F)c3[nH]2)CC1` [Example I-988], the IC50 is less than 100 nM.
For the molecule `COc1ccccc1-c1cc(C2=CCCN(C(=O)[C@H]3Cc4ccccc4CN3C=O)C2)cc2cc(C(=O)N(C)C)oc12` (single isomer, unassigned) [Example I-804], the half-inhibitory concentration (IC50) lay in the range of 100 to 1000 nM.
For `COc1ccccc1-c1cc(C2=CCCN(C(=O)CCn3ccnn3)C2)c(F)c2[nH]c(C(=O)N3CCN(c4cccn(C)c4=O)CC3)cc12` [Example I-1021], the IC50 is less than 100 nM.
The value for `CNc1ccc(-c2cc(C3=CCCN(C(=O)CCn4ccnn4)C3)cc3[nH]c(C(=O)N(C)C)cc23)c(OC)c1` [Example I-1051] was more than 100000 nM; that for `COc1ccccc1-c1cc(C2=CCCN(C(=O)CCn3ccnn3)C2)c(F)c2[nH]c(C(=O)N3CCN(c4nc5ccccc5n4CC4CC4)CC3)cc12` [Example I-943] was less than 100 nM.
The result for `CN(C)C(=O)c1cc2cc(C3=CCCN(C(=O)CCn4ccnn4)C3)cc(NCc3ccc(C#N)cc3)c2o1` [Example I-895] reads less than 100 nM.
